Source: publication doi:10.1101/487637v1, “Chemogenetic ligands for translational neurotheranostics” (biorxiv, 2018)

What was measured:
hM3Dq [1] = molecular target: T1, hM3Dq (Homo sapiens, UniProt P20309, Y149C/A239G); assay: [3H]clozapine competition, HEK-293 membranes; format: binding; settings: 2.5 nM [3H]clozapine, 50 mM Tris-HCl pH 7.4, 10 mM MgCl2, RT, 2 h
T1 construct: gene CHRM3; human M3 muscarinic receptor DREADD; AAV plasmid Addgene #89149; transiently expressed in HEK-293 cells

hM4Di [2] = molecular target: T2, hM4Di (Homo sapiens, UniProt P08173, Y113C/A203G); assay: [3H]clozapine competition, HEK-293 membranes; format: binding; settings: 2.5 nM [3H]clozapine, 50 mM Tris-HCl pH 7.4, 10 mM MgCl2, RT, 2 h
T2 construct: gene CHRM4; human M4 muscarinic receptor DREADD; AAV plasmid Addgene #89150; transiently expressed in HEK-293 cells; docking model prints Y113G/A203G, the standard DREADD is Y113C/A203G
T2 sequence (P08173 1-479 Y113C/A203G): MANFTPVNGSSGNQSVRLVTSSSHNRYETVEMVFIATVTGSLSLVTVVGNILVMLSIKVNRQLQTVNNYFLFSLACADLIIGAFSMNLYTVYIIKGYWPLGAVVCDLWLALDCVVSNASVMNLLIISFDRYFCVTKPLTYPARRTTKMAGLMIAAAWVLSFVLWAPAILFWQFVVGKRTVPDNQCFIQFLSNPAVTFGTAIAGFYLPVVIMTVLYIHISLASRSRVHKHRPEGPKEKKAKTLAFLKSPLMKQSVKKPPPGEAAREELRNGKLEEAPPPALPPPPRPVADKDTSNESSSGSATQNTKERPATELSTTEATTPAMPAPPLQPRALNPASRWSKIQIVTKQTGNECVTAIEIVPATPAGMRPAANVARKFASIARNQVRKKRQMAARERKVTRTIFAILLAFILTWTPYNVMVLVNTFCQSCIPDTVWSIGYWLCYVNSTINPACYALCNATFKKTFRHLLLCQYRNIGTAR

hM3Dq [3] = molecular target: T3, hM3Dq (Homo sapiens, UniProt P20309, A239G/Y149C); assay: [3H]clozapine competition, HEK-293 membranes; format: binding
T3 construct: gene CHRM3; human M3 muscarinic receptor DREADD; AAV plasmid Addgene #89149; transiently expressed in HEK-293 cells

hM4Di [4] = molecular target: T2, hM4Di; assay: BRET Galpha-o1 activation, HEK-293; format: cell-based; settings: agonist; PBS; Galpha-Rluc8, beta1, gamma2-mVenus
hM4Di [5] = molecular target: T4, hM4Di (Homo sapiens, UniProt P08173, A203G/Y113C); assay: [3H]clozapine competition, HEK-293 membranes; format: binding
T4 construct: gene CHRM4; human M4 muscarinic receptor DREADD; AAV plasmid Addgene #89150; transiently expressed in HEK-293 cells; docking model prints Y113G/A203G, the standard DREADD is Y113C/A203G
T4 sequence (P08173 1-479 Y113C/A203G): T2 sequence (P08173 1-479 Y113C/A203G)

T3 sequence (P20309 whole entry Y149C/A239G): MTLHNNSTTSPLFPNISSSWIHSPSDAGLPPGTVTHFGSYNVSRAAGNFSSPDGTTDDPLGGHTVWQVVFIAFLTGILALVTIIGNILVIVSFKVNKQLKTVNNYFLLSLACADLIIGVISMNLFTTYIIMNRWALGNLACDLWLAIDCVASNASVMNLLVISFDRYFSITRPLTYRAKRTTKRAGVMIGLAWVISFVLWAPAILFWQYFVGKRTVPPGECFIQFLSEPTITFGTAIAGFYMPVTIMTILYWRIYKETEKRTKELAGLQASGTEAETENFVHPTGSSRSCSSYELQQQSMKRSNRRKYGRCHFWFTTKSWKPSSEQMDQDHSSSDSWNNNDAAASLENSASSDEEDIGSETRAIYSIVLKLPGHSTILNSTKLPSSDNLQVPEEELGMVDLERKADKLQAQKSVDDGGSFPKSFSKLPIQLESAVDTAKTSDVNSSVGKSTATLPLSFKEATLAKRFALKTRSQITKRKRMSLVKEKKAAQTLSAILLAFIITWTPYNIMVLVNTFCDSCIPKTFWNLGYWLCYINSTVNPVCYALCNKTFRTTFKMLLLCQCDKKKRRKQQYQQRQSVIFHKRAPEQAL
T1 sequence (P20309 whole entry Y149C/A239G): as above

Structure (SMILES)	Ki (hM3Dq [1])	Ki (hM4Di [2])	Ki (hM3Dq [3])	EC50 (hM4Di [4])	Ki (hM4Di [5])
CCN1CCN(C2=Nc3cc(Cl)ccc3Nc3ccccc32)CC1 [C13, Compound 13]	4.3 nM	4.3 nM	–	–	–
c1ccc2c(c1)N=C(N1CCNCC1)c1ccccc1N2 [C21, Compound 21]	–	–	230 nM	C21 was less potent than clozapine at Gi/o activation in cells or tissue expressing hM4Di	91 nM
CN1CCN(C2=Nc3cc(Cl)ccc3Nc3ccccc32)CC1 [CLZ, clozapine]	–	–	–	C21 was less potent than clozapine at Gi/o activation in cells or tissue expressing hM4Di	–
